Assay results published in paper PMC5481817, “Developing Targeted Hybrid Imaging Probes by Chelator Scaffolding” (Bioconjugate chemistry, 2017).
*1 amine or outer side, *2 acyl side, *3 side chain or, on linkers, in order; H or OH if unused. Where a SMILES comes first, the peptide text is derived from it. Bridges are numbered along the chain shown (N, C = ends). Roman numbers before positions name the chains, in order. [ ]: non-standard residue; d: D form. X2 = CC1=CC(=O)N(O)CCCC(NC(=O)CCN2C(=O)CC([*:2])C2=O)C(=O)OCCC(C)=CC(=O)N(O)CCCC(NC(=O)CCN2C(=O)CC([*:1])C2=O)C(=O)OCCC(C)=CC(=O)N(O)CCCC(NC(=O)CCCCC[N+]2=C(C=CC3=CC(=CC=C4N(C)c5ccc(S(=O)(=O)O)cc5C4(C)C)CCC3)C(C)(C)c3cc(S(=O)(=O)[O-])ccc32)C(=O)OCC1; Mpa = O=C(O)CCS

Key:
[1] = tested on: A431-CCK2R/A431-mock tumor xenograft-bearing BALB/c nude mice; experiment: Near-infrared fluorescence imaging, A431-CCK2R/A431-mock xenografts; assay type: in vivo, mouse
Method: All animal experiments were conducted in accordance with regulations and guidelines of the Czech Animal Protection Act (No. 246/1992), and with the approval of the Czech Ministry of Education, Youth, and Sports (MSMT-22421/2013–12), and the institutional Animal Welfare Committee of the Faculty of Medicine and Dentistry of Palacky University in Olomouc. The studies were performed using female 8–10-week-old athymic BALB/c nude mice (Envigo, Horst, The Netherlands). […]
Tumor xenografts were established near the front shoulder of mice by subcutaneous injection of 5 × 10^6 cells (U-87 MG) or 2 × 10^6 cells (A431-CCK2R) and the same amount of A431-mock cells as a control in 200 μL appropriate medium and Matrigel (1:1). […] Tumors, blood, muscle tissue, and organs were extracted, weighed, and activity uptake of the samples was measured in the gamma counter. Results were expressed as percentage of injected dose per gram tissue (% ID/g). […] After reconstruction, acquired data was viewed and analyzed with PMOD software (PMOD Technologies Ltd., Zurich, Switzerland). […] Near-infrared in vivo fluorescence imaging was performed with an In-Vivo MS FX PRO small animal imaging system (Bruker Biospin Corporation, Woodbridge, CT, USA). […] An appropriate filter set (excitation = 730 nm and emission = 790 nm) was used for acquiring the Sulfo-Cy7-FSC-peptide - fluorescence in vivo. […]

human CCK-2 receptor = target: T1, human CCK-2 receptor (Homo sapiens, UniProt P32239); experiment: Whole cell receptor binding affinity (displacement of [125I]-[Leu15]-Gastrin I) on A431-CCK2R cells
T1 construct: expressed in transfected cells; host or cells: A431 human squamous carcinoma cells (gift from L. Aloj)
T1 sequence (P32239 1-447): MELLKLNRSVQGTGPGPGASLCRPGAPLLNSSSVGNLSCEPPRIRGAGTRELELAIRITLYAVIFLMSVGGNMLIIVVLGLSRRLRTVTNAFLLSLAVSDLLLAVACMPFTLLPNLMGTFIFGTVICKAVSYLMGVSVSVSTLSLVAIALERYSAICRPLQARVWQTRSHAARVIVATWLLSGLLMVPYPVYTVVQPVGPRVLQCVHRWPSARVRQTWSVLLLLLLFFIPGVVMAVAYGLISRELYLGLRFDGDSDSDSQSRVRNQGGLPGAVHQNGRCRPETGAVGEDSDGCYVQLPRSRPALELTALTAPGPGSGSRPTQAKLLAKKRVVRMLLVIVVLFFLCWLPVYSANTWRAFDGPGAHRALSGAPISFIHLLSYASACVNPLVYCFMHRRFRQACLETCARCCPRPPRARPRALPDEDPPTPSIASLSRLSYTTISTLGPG
Method: (§1) Receptor binding affinities were evaluated via a displacement cell-binding assay for metal free as well as metal bound ([^natGa]) conjugates. Binding of nonradioactive gallium was performed in analogy to the radiolabeling procedure but instead of the generator eluate a 100-fold molar excess of gallium bromide (GaBr3) dissolved in 100 μL 0.1 N HCl was used. Cells were prepared as described below and incubated with increasing concentrations [0.001–1000 nM] of competitor in triplicate. After addition of corresponding iodinated radioligand the 96-well MulitScreen Filter Plates HTS (1 μm glass fiber filter, Merck Millipore, Darmstadt, Germany) were incubated for 1 or 2 h at RT under shaking conditions (Compact shaker KS-15 control, 200/min) and after a washing step the remaining activity on the filter was measured in the γ-counter. The receptor affinity of DOTA-minigastrin11 as well as c(RGDyV) were determined under the corresponding conditions as a reference. IC50 values were calculated by using nonlinear curve fitting with following formula NS+SB/(1+x/IC50) on Origin 6.1 software (Northampton, MA, USA). A detailed description regarding iodination can be found in the Supporting Information.
A431-CCK2R cells were diluted in 50 mM HEPES buffer (pH 7.3) containing 5 mM MgCl2 and 0.3% BSA to a density of 5 × 10^6 cells/mL. 96-well plates were washed with 200 μL of 10 mM TRIS buffered saline (pH 7.3) and 100 μL of cell suspension were added to each well. Hereafter 50 μL of competitor solution {([^natGa])Sulfo-Cy7-FSC-MG or DOTA-minigastrin^11 diluted in 20 mM HEPES; 10 mM MgCl2 and 0.1% BSA} of each concentration were added and left for 10 min at RT. After incubation with 50 μL of radioligand (human [^125I]-[Leu^15]-Gastrin I 4.5 × 10^4 cpm) for 1 h the plate was washed twice with 200 μL TRIS-buffer/well.

A431-CCK2R cells = experiment: Fluorescence measured cell specificity, A431-CCK2R; assay type: cell-based, human; settings: 2 h incubation, 3 nM ligand
Method: Fluorescence assays were conducted similarly to the internalization assays except for using lower cell numbers and determining only the cellbound fraction. Briefly, A431-CCK2R, M21, and M21-L cells were diluted in corresponding media to a density of 2 × 10^6 cells/mL. Aliquots of 0.5 mL were transferred to Eppendorf tubes—six technical replicates for A431-CCK2R unblocked and blocked and M21/M21-L, respectively—and treated in the same manner as described above. The nonradiolabeled particular ligand was added to a final concentration of 3 nM and the tubes were kept in an incubator (Incubator hood TH15 and Compact shaker KS-15 control, Edmund Bühler GmbH, Hechingen, Germany) at 37 °C for 2 h under vigorously shaking (420/min). After centrifugation (2 min, 5000 rpm) washing steps were performed as mentioned before. […] Fluorescence intensity was measured with Tecan Infinite 200 PRO series multiplate reader (Tecan Trading AG, Switzerland) by using Tecan Icontrol 1.1 software. Parameters were set as follows: Fluorescence Top reading; excitation/emission wavelength 740/790 nm; excitation bandwidth 9 nm; emission bandwidth 20 nm; gain optimal; number of flashes 25; integration time 25 μs. Results were calculated and expressed as percentage of cell-bound fluorescence in relation to the standards sample.

integrin αvβ3 = target: T2, integrin αvβ3 (Homo sapiens, UniProt P05106+P06756); experiment: Integrin binding affinity assay (displacement of [125I]-c(RGDyV)) on M21 cells
T2 construct: endogenous in cells; host or cells: human melanoma M21 cells (gift from D. A. Cheresh)
T2 sequence (P06756 31-889 limits assumed): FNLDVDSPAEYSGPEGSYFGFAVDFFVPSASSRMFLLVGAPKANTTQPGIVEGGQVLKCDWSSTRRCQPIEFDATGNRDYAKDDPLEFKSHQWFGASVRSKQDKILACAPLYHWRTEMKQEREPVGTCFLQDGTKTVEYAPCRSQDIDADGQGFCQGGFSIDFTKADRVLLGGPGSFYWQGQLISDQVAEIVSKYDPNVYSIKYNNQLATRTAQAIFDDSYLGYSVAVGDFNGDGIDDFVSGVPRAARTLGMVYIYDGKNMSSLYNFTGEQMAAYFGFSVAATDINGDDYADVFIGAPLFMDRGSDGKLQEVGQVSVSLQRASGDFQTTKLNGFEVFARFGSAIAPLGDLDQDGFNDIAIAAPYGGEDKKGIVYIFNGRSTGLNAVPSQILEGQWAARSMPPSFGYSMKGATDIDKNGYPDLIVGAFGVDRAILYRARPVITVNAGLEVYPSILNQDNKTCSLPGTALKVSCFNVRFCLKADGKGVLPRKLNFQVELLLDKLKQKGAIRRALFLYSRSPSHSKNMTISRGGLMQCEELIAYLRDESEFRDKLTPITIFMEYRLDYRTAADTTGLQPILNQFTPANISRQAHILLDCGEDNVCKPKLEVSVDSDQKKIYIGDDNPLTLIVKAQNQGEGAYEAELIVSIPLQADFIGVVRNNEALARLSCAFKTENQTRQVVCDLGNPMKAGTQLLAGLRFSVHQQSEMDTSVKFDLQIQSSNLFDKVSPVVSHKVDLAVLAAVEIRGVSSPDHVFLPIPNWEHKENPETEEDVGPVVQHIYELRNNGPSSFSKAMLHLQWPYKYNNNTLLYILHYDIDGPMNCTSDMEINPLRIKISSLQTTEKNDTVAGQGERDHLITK
T2 sequence (P06756 891-1048 partner limits assumed): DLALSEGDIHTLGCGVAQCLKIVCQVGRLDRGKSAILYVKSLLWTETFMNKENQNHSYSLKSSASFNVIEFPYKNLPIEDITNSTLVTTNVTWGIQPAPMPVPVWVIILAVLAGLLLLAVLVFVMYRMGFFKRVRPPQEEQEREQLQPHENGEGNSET
T2 sequence (P05106 27-788): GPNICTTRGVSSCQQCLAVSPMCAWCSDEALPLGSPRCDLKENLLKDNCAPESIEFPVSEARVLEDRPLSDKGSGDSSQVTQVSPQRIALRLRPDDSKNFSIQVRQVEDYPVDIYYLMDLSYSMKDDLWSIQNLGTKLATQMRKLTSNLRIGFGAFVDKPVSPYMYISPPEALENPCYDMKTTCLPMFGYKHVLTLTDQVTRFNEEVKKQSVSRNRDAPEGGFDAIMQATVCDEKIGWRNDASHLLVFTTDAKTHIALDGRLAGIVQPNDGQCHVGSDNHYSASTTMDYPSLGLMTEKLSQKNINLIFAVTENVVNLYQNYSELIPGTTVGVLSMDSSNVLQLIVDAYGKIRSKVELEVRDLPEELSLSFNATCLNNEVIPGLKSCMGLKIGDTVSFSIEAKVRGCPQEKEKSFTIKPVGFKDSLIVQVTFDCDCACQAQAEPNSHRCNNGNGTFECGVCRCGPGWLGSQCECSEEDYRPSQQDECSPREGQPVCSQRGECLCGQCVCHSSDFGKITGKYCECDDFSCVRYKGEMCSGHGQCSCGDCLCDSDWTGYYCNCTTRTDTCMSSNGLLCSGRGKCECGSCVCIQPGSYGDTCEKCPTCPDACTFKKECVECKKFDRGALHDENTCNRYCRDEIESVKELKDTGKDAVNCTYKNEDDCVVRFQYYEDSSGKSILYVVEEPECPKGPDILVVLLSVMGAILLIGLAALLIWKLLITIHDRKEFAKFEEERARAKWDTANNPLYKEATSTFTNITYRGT
Method: as §1
Integrin binding affinity assay was adapted from Yun Wu et al.[31] Briefly, M21 cells were washed two times with phosphate buffered saline followed by suspension in binding buffer (=20 mM TRIS pH 7.4 + 150 mM NaCl + 2 mM CaCl2 + 1 mM MgCl2 + 1 mM MnCl2 0.1% BSA). 96-well plates were washed with 200 μL of 20 mM TRIS-buffer and seeded with 1 × 10^6 cells/well (10^7 cells/mL). After 10 min of incubation in the presence of the competitor {([^natGa])Sulfo-Cy7-FSC-RGD or c(RGDyV) diluted in binding buffer)} volume was adjusted to 200 μL/well by adding 50 μL of radioligand ([^125I]-c(RGDyV), 4.5 × 10^4 cpm) and the plate was left for 2 h at RT. Finally the supernatant was removed by vacuum and each well was washed three times with 200 μL ice-cold binding buffer.

[2] = metal-bound ([natGa]) complexed form

With `CSCC[C@H](NC(=O)[C@H](Cc1c[nH]c2ccccc12)NC(=O)CNC(=O)[C@H](Cc1ccc(O)cc1)NC(=O)[C@H](C)NC(=O)[C@@H](CCC(=O)O)NC(=O)CCSC1CC(=O)N(CCC(=O)NC2CCCN(O)C(=O)C=C(C)CCOC(=O)C(NC(=O)CCN3C(=O)CC(SCCC(=O)N[C@H](CCC(=O)O)C(=O)N[C@@H](C)C(=O)N[C@@H](Cc4ccc(O)cc4)C(=O)NCC(=O)N[C@@H](Cc4c[nH]c5ccccc45)C(=O)N[C@@H](CCSC)C(=O)N[C@@H](CC(=O)O)C(=O)N[C@@H](Cc4ccccc4)C(N)=O)C3=O)CCCN(O)C(=O)C=C(C)CCOC(=O)C(NC(=O)CCCCC[N+]3=C(C=CC4=CC(=CC=C5N(C)c6ccc(S(=O)(=O)O)cc6C5(C)C)CCC4)C(C)(C)c4cc(S(=O)(=O)[O-])ccc43)CCCN(O)C(=O)C=C(C)CCOC2=O)C1=O)C(=O)N[C@@H](CC(=O)O)C(=O)N[C@@H](Cc1ccccc1)C(N)=O` (stereo partly drawn) [Sulfo-Cy7-FSC-MG, Sulfo-Cyanine7-FSC-(mal-MG11)2] (I: [Mpa][dE]AYGWMDF-NH2 / II: [Mpa][dE]AYGWMDF-NH2; linker I:1-II:1 via X2) the “optical imaging tumor contrast” value ([1]; 2 h after injection) was “moderate contrast”, the “optical imaging tumor contrast” value ([1]; 5 h up to 3 days p.i.) was “excellent contrast” and the IC50 (human CCK-2 receptor; [2]) was 2.68 ± 0.53 nM. For the same molecule, the IC50 (human CCK-2 receptor; metal-free (uncomplexed) conjugate or reference peptide, radioligand [125I]-[Leu15]-Gastrin I, 1 h RT) was 2.81 ± 0.66 nM, the Fluorescence-determined cell uptake (A431-CCK2R cells; blocked A431-CCK2R cells) was 1.65 ± 0.47% and the Fluorescence-determined cell uptake (A431-CCK2R cells; nonblocked A431-CCK2R cells) was 10.78 ± 1.04%.

With `CSCC[C@H](NC(=O)[C@H](Cc1c[nH]c2ccccc12)NC(=O)CNC(=O)[C@H](Cc1ccc(O)cc1)NC(=O)[C@H](C)NC(=O)[C@@H](CCC(=O)O)NC(=O)CCSC1CC(=O)N(CCC(=O)NC2CCCN(O)C(=O)C=C(C)CCOC(=O)C(NC(=O)CCN3C(=O)CC(SCCC(=O)N[C@H](CCC(=O)O)C(=O)N[C@@H](C)C(=O)N[C@@H](Cc4ccc(O)cc4)C(=O)NCC(=O)N[C@@H](Cc4c[nH]c5ccccc45)C(=O)N[C@@H](CCSC)C(=O)N[C@@H](CC(=O)O)C(=O)N[C@@H](Cc4ccccc4)C(N)=O)C3=O)CCCN(O)C(=O)C=C(C)CCOC(=O)C(NC(=O)CCCCC[N+]3=C(C=CC4=CC(=CC=C5N(C)c6ccc(S(=O)(=O)O)cc6C5(C)C)CCC4)C(C)(C)c4cc(S(=O)(=O)[O-])ccc43)CCCN(O)C(=O)C=C(C)CCOC2=O)C1=O)C(=O)N[C@@H](CC(=O)O)C(=O)N[C@@H](Cc1ccccc1)C(N)=O` (stereo partly drawn) [[^natGa]Sulfo-Cy7-FSC-MG, metal not drawn] (I: [Mpa][dE]AYGWMDF-NH2 / II: [Mpa][dE]AYGWMDF-NH2; linker I:1-II:1 via X2) the IC50 (human CCK-2 receptor; [2]) was 2.68 ± 0.53 nM.

`CC1=CC(=O)N(O)CCCC(NC(=O)CCN2C(=O)CC(SCCOCCOCCOCCOCCC(=O)NCCCC[C@@H]3NC(=O)[C@@H](Cc4ccccc4)NC(=O)[C@H](CC(=O)O)NC(=O)CNC(=O)[C@H](CCCNC(=N)N)NC3=O)C2=O)C(=O)OCCC(C)=CC(=O)N(O)CCCC(NC(=O)CCN2C(=O)CC(SCCOCCOCCOCCOCCC(=O)NCCCC[C@@H]3NC(=O)[C@@H](Cc4ccccc4)NC(=O)[C@H](CC(=O)O)NC(=O)CNC(=O)[C@H](CCCNC(=N)N)NC3=O)C2=O)C(=O)OCCC(C)=CC(=O)N(O)CCCC(NC(=O)CCCCC[N+]2=C(C=CC3=CC(=CC=C4N(C)c5ccc(S(=O)(=O)O)cc5C4(C)C)CCC3)C(C)(C)c3cc(S(=O)(=O)[O-])ccc32)C(=O)OCC1` (stereo partly drawn) [[^natGa]Sulfo-Cy7-FSC-RGD, metal not drawn] was tested, and the IC50 (integrin αvβ3; [natGa] bound form) was 0.81 ± 0.19 nM.

`CC(C)[C@@H]1NC(=O)[C@@H](Cc2ccc(O)cc2)NC(=O)[C@H](CC(=O)O)NC(=O)CNC(=O)[C@H](CCCNC(=N)N)NC1=O` [c(RGDyV), reference compound] gave an IC50 (integrin αvβ3; metal-free conjugate or reference peptide, radioligand [125I]-c(RGDyV), 2 h RT) of 15.2 ± 2.86 nM.
